Experimental data: US8119640B2, “Hedgehog pathway antagonists methods of use” (The Board of Trustees of the Leland Stanford Junior …, priority 2008, dated 2012)

Legend:
[1] = tested on: MAPK; conditions: NIH-3T3 cells, 10 μM U0126
Procedure: NIH-3T3 cells were seeded into 6-well plates and grown to 80% confluency in DMEM containing 10% CS, 100 U/mL penicillin, and 0.1 mg/mL streptomycin. Cells were then serumstarved for 8 h in DMEM containing 0.5% CS and either DMSO, 15 μM HPI-1, 20 μM HPI-2, 30 μM HPI-3, or 30 μM HPI-4. 50 μM LY294002 and 10 μM U0126 were used as positive controls. After serum starvation, cells were stimulated with 10 ng/ml PDGF BB for 30 min, washed in PBS, and lysed in buffer containing 50 mM Tris HCl pH 7.4, 250 mM NaCl, 20 mM NaF, 2 mM sodium orthovanadate, 2 mM EDTA, 2 mM PMSF, 1% Triton X-100, and EDTA free protease inhibitor cocktail (Roche). Cell lysates were clarified by centrifugation at 20,000×g and total protein concentrations were determined by the BCA assay (Pierce). 15 μg of protein from each lysate was mixed with 6×SDS-PAGE sample buffer (300 mM Tris-HCl, pH 6.8 containing 60% glycerol, 12% SDS, 600 mM DTT, and 0.05% bromophenol blue), boiled for 17 5 min and then resolved on 4-12% Bis-Tris Criterion XT gels. The electrophoresed samples were transferred to PVDF membranes and blocked overnight in TBST buffer containing 5% BSA. […]

[2] = molecular target: Smo (Mus musculus, UniProt P56726); assay: FRET assay for Smo multimerization (Smo-CFP/Smo-YFP); format: cell-based, murine; design: expressed in transfected cells; host or cells: NIH-3T3; conditions: 10 μM cyclopamine, 500 nM SAG, 10 μM HPIs
Procedure: FRET assay for Smo multimerization. […] The cells were washed with PBS buffer, fixed with 4% paraformaldehyde for 20 min, and mounted on slides in 80% glycerol. Fluorescence signals were acquired with the 100× objective of a Zeiss LSM510 confocal microscope with the following conditions: CFP was excited by 458-nm light and the emission was collected through a BP 480-520-nm filter. YFP was excited by 514-nm light and the emission was collected through a BP 535-590-nm filter. The CFP signal was obtained before and after photobleaching YFP(CFPBP and CFPAP, respectively) using the full power of the 514-nm laser line for 1-2 min at the top half of each cell, leaving the bottom half unbleached as an internal control. The CFP fluorescence intensity was analyzed using Metamorph software (Universal Imaging Corp.), and the energy transfer efficiency was calculated using the formula: FRET %=((CFPAP−CFPBP)/CFPAP)×100. Photobleached areas in 11-19 cells were analyzed for each experimental condition.

[3] = tested on: Hh pathway; assay: Shh-LIGHT2 assay for Hh pathway activation (Gli-dependent firefly luciferase); format: cell-based; conditions: 0.5 μM SAG versus Shh
Procedure: Shh-LIGHT2 assay for Hh pathway activation and library screening conditions. h-N-conditioned medium was prepared as previously described. […] For 96-well plate assays, Shh-LIGHT2 cells were seeded into each plate (10,000 cells/well) and cultured to confluency. The Shh-LIGHT2 cells were then grown in DMEM containing 0.5% CS, 100 U/mL penicillin, 0.1 mg/mL streptomycin, either 5% Shh-N-conditioned medium or 500 nM SAG, and various concentrations of the HPIs. After the cells were cultured for another 30 h, the resulting firefly and Renilla luciferase activities were measured using a Dual Luciferase Reporter kit (Promega) and a Veritas microplate luminometer (Turner Biosystems).
When the cells reached >90% confluency, they were removed by trypsinization and diluted to a final volume of 50 mL medium. This cell suspension was then plated into clear-bottom, white-walled 384-well plates using a Titertek Multidrop dispenser (50 μL/well) and the cells were cultured until they reached confluency (3-4 days). […] The plates were then placed into an automated Staccato system (Caliper Life Sciences), which includes an automated CO2 incubator. An automated protocol was then run, in 3 which a Multidrop dispenser added 10 μL of a SAG solution in 0.5% CS medium (final SAG concentration of 500 nM) to columns 1-22 and 100 nL of each compound solution was added to the plates using a V&P Scientific pin tool, resulting in a final compound screening concentration of 10 μM. The SAG-free wells were used as negative controls. After 28-32 h, the assay medium was manually removed and the plates were frozen. To assay the firefly luciferase activities, the plates were thawed and placed into a Twister II stacker in the Staccato system. Bright-Glo luciferase substrate (Promega) was added by the Multidrop dispenser and the plates were analyzed on an Analyst GT microplate reader (2 min in the dark, 0.2 sec integration/well; Molecular Devices). Hits were defined as compounds that reduce the firefly luciferase signal by at least 50% compared to inhibitor-free controls. Primary hits were then re-tested in duplicate in an eight-point, 1:1 serially diluted doseresponse curve with a starting concentration of 20 μM. In these experiments, the median inhibitory concentration (IC50) for both firefly and Renilla luciferase were determined using a Dual-Glo kit (Promega).

[4] = tested on: Hh pathway; assay: Shh-EGFP assay for Hh pathway activation; format: cell-based; conditions: 3 μM cyclopamine; 15 μM HPI-1, 20 μM HPI-2, 30 μM HPI-3, 30 μM HPI-4
Procedure: Shh-EGFP assay for Hh pathway activation. A Gli-dependent enhanced green fluorescent protein reporter (Shh-EGFP) was generated by excising firefly luciferase cDNA from the 8XGliBs vector using NcoI/Hpal, and ligating in EGFP cDNA excised from the pEGFP-C1 vector (Clontech) by NcoI/Af/II digestion. […] The cells were grown to confluency and treated with DMEM containing 0.5% CS, 100 U/mL penicillin, 0.1 mg/mL streptomycin, and 5% Shh-N-conditioned medium for 30 h. Following Shh-N treatment, the adherent cultures were dissociated into single cells with 0.05% Trypsin-EDTA (300 μL/well; Invitrogen) for 5 min. The cells were then suspended in 1 mL of PBS containing 1% CS and sorted on a BD FACSAria (excitation: 488 nm; emission: 530/30 nm) to enrich for cells expressing EGFP in a Shh-N-responsive manner. […] To identify Shh-EGFP clones with maximum Shh-N-responsiveness, individual lines were seeded into 24-well plates (45,000 cell/well) and cultured for 48 h. The cells were then treated with DMEM containing 0.5% CS, 100 U/mL pencillin, 0.1 mg/mL streptomycin or the culture medium plus 5% Shh-N-conditioned medium. After 30 h, the adherent cultures were treated with 0.05% trypsin-EDTA (150 μL/well; Invitrogen) for 5 min to dissociate them into single cells. The cells were then resuspended in 500 μL of PBS containing 1% CS and analyzed on a BD FACSCalibur (excitation: 488 nm; emission: 530/30 nm). 10,000 cells were used to assess EGFP expression levels as a measure of Hh pathway activation, and the data was analyzed using FlowJo software (Tree Star). Clones with low basal EGFP levels and maximum Shh-Ninduced EGFP expression were selected for further use. To assess the inhibitory activities of the HPIs in the Shh-EGFP cells, a clonal line with maximum Shh-responsiveness was cultured in 24-well plates as described above. […] The resulting EGFP levels were then evaluated by FACS and quantified using the FlowJo software.

[5] = tested on: C3H10T(1/2) cells; assay: C3H10T(1/2) assay for Hh pathway activation (alkaline phosphatase); format: cell-based
Procedure: C3H10T(1/2) assay for Hh pathway activation. C3H10T(1/2) cells (ATCC) were plated into 96-well plates using DMEM containing 10% FBS, 100 U/mL penicillin, 0.1 mg/mL streptomycin, 5% Shh-N-conditioned medium, and various concentrations of the Hh pathway inhibitors. After approximately 40 h, the cells were washed with PBS and lysed in 50 μL of buffer containing 50 mM Tris-HCl, pH 9.5, 150 mM NaCl, 5 mM MgCl2, and 1% Triton X-100. Alkaline phosphatase activities in the cell lysates were quantified by adding 10 μL of the lysate to 50 μL of CDP-Star chemiluminescence reagent (Perkin Elmer) and measuring the resulting chemiluminescence on a Veritas microplate luminometer.

[6] = tested on: FLAG-Gli2; assay: Analysis of Gli2 processing and Shh-dependent Gli2 stabilization; format: cell-based, mouse; conditions: Shh-EGFP FLAG-Gli2 cells, absence and presence of Shh, 24 h
Procedure: Analysis of Gli2 processing and Shh-dependent Gli2 stabilization. […] Each compound incubation was also done in the absence and presence of 5% Shh-N-conditioned medium, and the cells were maintained under these conditions for 24 h. The cells were subsequently solubilized in lysis buffer (100 μL/well; 50 mM Tris-HCl, pH 7.4, 1% Triton X-100, 250 mM NaCl, 2 mM EDTA, 20 mM NaF, 2 mM Na3VO4, 2 mM 2-mercaptoethanol, EDTA-free protease inhibitor cocktail (Roche)). This suspension was transferred to a 1.5-mL centrifuge tube and incubated on ice for 30 min, with vortexing every 5 min. The cell lysates were then centrifuged at 20,000×g at 4° C. for 20 min. Supernatants were removed, and a BCA protein assay was performed to quantify protein levels. Mouse anti-FLAG M2 agarose slurry (20 μL, Sigma) was pelleted by centrifugation and incubated with 800 ng of protein from each condition for 90 min at 4° C. and then washed three times with 1 mL of wash buffer (75 mM Tris-HCl buffer, pH 8.0 containing 225 mM NaCl, 0.5% Triton X-100) and centrifuged at 2,300×g at 4° C. The agarose beads were suspended in 30 μL of 1×SDS-PAGE sample buffer (50 mM Tris-HCl, pH 6.8 containing 10% glycerol, 2% SDS, 50 mM DTT, 200 mM 2-mercaptoethanol, and 0.001% bromophenol blue), and the mixture was boiled for 5 min. The samples were then resolved on a 4-12% Bis-Tris Criterion XT gel and transferred to a PVDF membrane. The membrane was dehydrated with methanol, and then probed with rabbit anti-FLAG antibody (Sigma; 1:1,000 dilution in blocking buffer (PBS 21 containing 3% non-fat dried milk and 0.01% Tween 20)) for 90 min. […] Blots were washed 4×3 min in PBS, and the immunoreactive bands were detected with a SuperSignal West Dura kit and a ChemiDoc XRS system. Protein bands were quantified using Quantity One software (Bio-Rad). For each experiment, boxes of equal size were drawn around the FLAG-Gli2 and FLAG-Gli2R bands. Band intensities were then normalized to the average intensity for all bands in a given experiment. The results from all experiments were averaged and normalized relative to the basal level of FLAG-Gli2 (DMSO treatment without Shh-N-conditioned medium).

[7] = tested on: Hh pathway; conditions: β-galactosidase reporter
Procedure: Ptch1^−/− fibroblast assay for Hh pathway activation Hh pathway activation in Ptch1^−/− fibroblasts was assayed as previously described, using the knocked-in β-galactosidase gene as a reporter for Hh target gene expression. Ptch1^−/− fibroblasts were grown to 70-80% confluence in a 15-cm dish, trypsinized, and then resuspended in 40 mL of DMEM containing 10% FBS, 100 U/mL penicillin, and 0.1 mg/mL DMSO. This cell suspension was aliquoted into 96-well plates (150 μL/well), cultured overnight, and then treated with DMSO or various concentrations of the HPIs for 28 h. […] The cells were then lysed in Tropix lysis solution (30 μL/well; Applied Biosystems) and β-galactosidase levels were quantified by a Tropix Galacto-Star kit (Applied Biosystems) on a Veritas microplate luminometer.

[8] = tested on: Hh pathway
Procedure: SmoM2-LIGHT assay for Hh pathway activation. SmoM2-LIGHT cells (previously named SmoA1-LIGHT cells) were grown to 70-80% confluence in a 15-cm dish, trypsinized, and then resuspended in 40 mL of DMEM containing 10% FBS, 100 U/mL penicillin, and 0.1 mg/mL DMSO. This cell suspension was aliquoted into 96-well plates (150 μL/well), cultured overnight, and then treated with DMSO or various concentrations of the HPIs for 28 h. Cells were then washed once with PBS then treated with 50 μL of passive lysis buffer (Promega). Hh pathway-dependent firefly luciferase activity in the lysates was quantified using Bright-Glo reagent and a Veritas microplate luminometer. Constitutive β-galactosidase activity was measured using the Tropix Galacto-Star kit.

Smo, sequence (P56726 33-793): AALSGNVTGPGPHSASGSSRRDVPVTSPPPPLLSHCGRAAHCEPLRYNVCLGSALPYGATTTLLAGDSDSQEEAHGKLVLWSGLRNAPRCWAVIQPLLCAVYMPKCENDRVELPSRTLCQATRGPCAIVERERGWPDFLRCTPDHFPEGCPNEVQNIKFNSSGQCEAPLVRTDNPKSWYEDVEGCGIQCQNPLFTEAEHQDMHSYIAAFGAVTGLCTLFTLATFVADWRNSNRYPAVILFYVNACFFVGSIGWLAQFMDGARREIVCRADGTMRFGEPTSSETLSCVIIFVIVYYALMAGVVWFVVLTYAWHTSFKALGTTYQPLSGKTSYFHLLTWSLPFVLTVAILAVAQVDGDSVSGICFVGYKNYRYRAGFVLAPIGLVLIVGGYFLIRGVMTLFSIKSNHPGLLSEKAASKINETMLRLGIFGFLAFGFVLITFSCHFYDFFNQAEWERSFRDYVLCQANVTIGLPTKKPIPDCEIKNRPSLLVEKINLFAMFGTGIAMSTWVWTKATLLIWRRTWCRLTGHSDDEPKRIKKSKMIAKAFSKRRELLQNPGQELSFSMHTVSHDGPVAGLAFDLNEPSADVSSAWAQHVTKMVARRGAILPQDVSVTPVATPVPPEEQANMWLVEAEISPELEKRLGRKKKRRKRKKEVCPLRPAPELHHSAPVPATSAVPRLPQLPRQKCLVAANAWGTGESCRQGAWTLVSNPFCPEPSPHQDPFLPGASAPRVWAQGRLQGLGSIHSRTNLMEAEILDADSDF
Smo, sequence (P56726 33-793): as above

`N#CC(=C(/N)Sc1ccccc1N)/C(C#N)=C(\N)Sc1ccccc1N` [Compound U0126] was tested, and the “PDGF-induced phosphorylation of p44/p22 MAPK” value [1] was “blocked p44/p22 MAPK phosphorylation”.

For `CNC1CCC(N(Cc2cccc(-c3ccncc3)c2)C(=O)c2sc3ccccc3c2Cl)CC1` (centres unmarked) [SAG, reference compound], the “Shh-induced fold change in Smo-CFP/Smo-YFP FRET” value [2] was “Shh-insensitive”.

In the case of `CC1=C2C[C@H]3[C@@H](CC=C4C[C@@H](O)CC[C@@]43C)[C@@H]2CC[C@]12O[C@@H]1C[C@H](C)CN[C@H]1[C@H]2C` [cyclopamine, reference compound], the “Inhibition of Hh pathway activation induced by 0.5 μM SAG” value [3] is reported as “resistant to inhibition”, the “Fluorescence intensity of Shh-treated Shh-EGFP cells (FACS, words)” value [4] is reported as “fluorescence intensities similar to those of untreated cells” and the “Block of Shh-induced differentiation of C3H10T(1/2) cells into osteoblasts” value [5] is reported as “block the Shh-induced differentiation”. For the same compound, the “FLAG-Gli2 levels and processing (immunoblotting)” value [6] was “can suppress the effects of Shh”, the “Inhibition of Hh pathway activity in Ptch1-/- fibroblasts” value [7] was “inhibit Hh pathway activity” and the “Inhibition of SmoM2-dependent Gli reporter expression in SmoM2-LIGHT cells” value [8] was “significantly less potent”.
